Laboratory results reported in patent US20260151403A1, “NEK7 DEGRADERS AND METHODS OF USE THEREOF” (Captor Therapeutics S.A., priority 2022, published 2026).

Columns and labels:
[1] = molecular target: T1, [NEK7]-[compound of formula (I)]-[CRBN/DDB1] complex (Homo sapiens, UniProt Q8TDX7+Q96SW2); assay: AlphaLISA dose response ternary complex formation assay; type: binding; conditions: 1 μM compound, normalized to maximum signal of Compound 2 (positive control) and DMSO background; for activation at 1 µM: read-out: Normalized AlphaLISA ternary complex average signal at 1 μM molecule
Experimental: The effect of the molecular glue compounds of the invention on the formation of a ternary complex composed of [NEK7]-[compound of formula (I)]-[CRBN/DDB1] was investigated with two methods: AlphaLISA dose response assay or HTRF ternary complex assay.
Two types of protein solution were prepared: • 200 nM biotinylated NEK7, 40 μg/ml AlphaScreen Streptavidin-coated Donor Beads in HBS (10 mM HEPES, 150 mM NaCL, pH 7.4) buffer with 0.1% Tween-20 and 1 mM DTT, • 200 nM 6×His-CRBN/Strep-DDB1, 40 μg/ml AlphaLISA Anti-6×His Acceptor beads in HBS buffer with 0.1% Tween-20 and 1 mM DTT.
The prepared solutions were incubated at room temperature for 30 min and then the solution containing the donor beads was mixed with the solution containing the acceptor beads.
The tested compounds were dispensed onto a white 384-well AlphaPlate 384 SW. DMSO was backfilled to all wells, resulting in a final DMSO content of 2%. Wells containing only DMSO served as background. Next, 10 μl of solution with donor and acceptor beads was added to the wells.
The plate was sealed with transparent film and shaken using a VibroTurbulator for 60 sec at room temperature, level 3. The plate was then spun down shortly (10 s, 1000 rcf, room temperature) and incubated at 25° C. for 30 min.
The read-out was performed with PerkinElmer Enspire Multimode Plate Reader (method for AlphaLISA 384-well low volume, Filterset: λexc=680 nm, λem=615 nm).
The results were analyzed as follows: • 1) an average of luminescence for background signal was calculated and used as a negative control; • 2) average of the maximum measured luminescence for Compound 2 was calculated and used as an internal positive control; • 3) raw luminescence values were normalized against positive and negative controls; • 4) Normalized responses to Compound 2 were determined.

[2] = molecular target: T1, [NEK7]-[compound of formula (I)]-[CRBN/DDB1] complex; assay: HTRF ternary complex assay; type: binding; conditions: dose-response, 180 min at 25° C.; for EC50: read-out: HTRF ternary complex Average pEC50 by molecule (converted)
Experimental: The effect of the molecular glue compounds of the invention on the formation of a ternary complex composed of [NEK7]-[compound of formula (I)]-[CRBN/DDB1] was investigated.
Mix solution of proteins and reagents was prepared: • 24 nM NEK7, 52.8 nM 6×His-CRBN/Strep-DDB1, 3 nM of Streptavidin-Eu cryptate […] and 6.67 nM of Anti-6×his-d2 […] was prepared in PPI Europium detection buffer (Cisbio) with 1 mM DTT.
The tested compounds in dose-response were dispensed onto a white 384-well low volume plate (Greiner, 784075). DMSO was backfilled to all wells, resulting in a final DMSO content of 0.5%. Wells containing only DMSO served as background.
The plate was sealed with transparent film and shaken using a VibroTurbulator for 60 sec at level 3.
The plate was then spun down shortly (10 s, 1000 rcf) and incubated at 25° C. for 180 min.
The read-out was performed with plate reader (Pherastar, BMG Labtech) in time resolved fluorescence mode. Filterset: TR 337 665 620.
The results were analyzed as follows: • 1) an average of fluorescence for background signal was calculated and used as a negative control; • 2) raw fluorescence values for tested compounds were normalized against negative controls; • 3) saturation curve was fitted to specific binding with Hill slope model; • 4) EC50 and pEC50 values were determined.

NEK7-HiBiT protein = NEK7-HiBiT protein (Homo sapiens, UniProt Q8TDX7); assay: NEK7-HiBiT degradation assay (Nano-Glo HiBiT Lytic Assay) in HEK293 NEK7-HiBiT cells; type: cell-based; conditions: 24 h, conc. 0.1, 1 and 10 μM tested, concentration of the table values not stated, mean of 3 technical replicates
Experimental: HEK293 NEK7-HiBiT cells were generated using CRISPR-Cas9 system. HEK293 cells were transformed with pSpCas9-BB-2A-Puro v2.0 plasmid carrying gRNA targeting the N-terminus of NEK7 and ssODN template containing the HiBiT tag sequence with flanking homology sequences. Neon Transfection System (Thermo Fisher Scientific) was used for electroporation. HEK293 NEK7-HiBiT cells were cultured with DMEM Glutamax (Gibco) supplemented with 10% heat inactivated FBS (Gibco). After transfection the culture medium was changed to DMEM Glutamax with 10% heat-inactivated FBS and 1% Penicillin-Streptomycin (Biowest) supplemented with Puromycin (2 μg/ml; Invivogen) for clonal selection. In order to isolate single cell clones for further validation and analysis, limiting dilution cloning in 96-well plates was performed. When the single clones reached confluency, HiBiT Lytic Assay (Promega) was performed in order to identify HiBiT positive clones. The clone selected for further studies was verified and validated using genotyping and HiBiT Blotting (Promega).
Selected clone of HEK293 NEK7-HiBiT cells was maintained in the DMEM-Glutamax medium supplemented with 10% of heat-inactivated FBS (Gibco) and 1% of Penicillin-Streptomycin Solution 100x (Biowest) at 37° C., 5% CO2 and subcultured every 2-3 days.
For Nano-Glo HiBiT Lytic Assay HEK293 NEK7-HiBiT cells were seeded at the density 2×10^3 cells in triplicates in the 40 μL of growth medium per single well on 384 well plate (Greiner Bio-One). Compounds or DMSO were added to treatment plates using Echo555 Liquid Handler and incubated at 37° C., 5% CO2 for 24 hours. After incubation 40 μL of Nano-Glo HiBiT Lytic Reagent (prepared according to the manufacturer protocol) were added to 40 μL of the cell culture medium present in each well. The plate content was briefly mixed (460 rpm) on an orbital shaker to ensure cell lysis. The plate was left at RT protected from light for another 10 min to stabilize the luminescent signal. The luminescence signal was measured using CLARIOstar Multimode Plate Reader. Focus and gain were adjusted to DMSO treated cells. The results were calculated as the NEK7-HiBiT % relative to the DMSO control of 3 technical replicates relative to the DMSO control.
HEK293 NEK7-HiBiT cells were treated with the compounds (conc. 0.1, 1 and 10 μM) or DMSO for 24 h. After incubation with compounds NEK7-HiBiT degradation was measured as a luminescence signal using CLARIOstar Multimode Plate reader.
Additionally, compounds reducing NEK7-HiBiT protein level by >=50% at 0.1 μM, were also identified.

T1 sequence (Q8TDX7 whole entry): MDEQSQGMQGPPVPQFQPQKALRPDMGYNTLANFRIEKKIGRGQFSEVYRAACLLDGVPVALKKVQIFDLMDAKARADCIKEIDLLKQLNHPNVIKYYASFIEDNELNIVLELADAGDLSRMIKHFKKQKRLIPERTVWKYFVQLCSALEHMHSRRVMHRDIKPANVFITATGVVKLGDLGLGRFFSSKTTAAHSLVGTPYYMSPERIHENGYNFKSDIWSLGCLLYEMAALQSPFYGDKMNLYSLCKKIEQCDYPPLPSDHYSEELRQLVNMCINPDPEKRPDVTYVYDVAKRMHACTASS
T1 sequence (Q96SW2 whole entry): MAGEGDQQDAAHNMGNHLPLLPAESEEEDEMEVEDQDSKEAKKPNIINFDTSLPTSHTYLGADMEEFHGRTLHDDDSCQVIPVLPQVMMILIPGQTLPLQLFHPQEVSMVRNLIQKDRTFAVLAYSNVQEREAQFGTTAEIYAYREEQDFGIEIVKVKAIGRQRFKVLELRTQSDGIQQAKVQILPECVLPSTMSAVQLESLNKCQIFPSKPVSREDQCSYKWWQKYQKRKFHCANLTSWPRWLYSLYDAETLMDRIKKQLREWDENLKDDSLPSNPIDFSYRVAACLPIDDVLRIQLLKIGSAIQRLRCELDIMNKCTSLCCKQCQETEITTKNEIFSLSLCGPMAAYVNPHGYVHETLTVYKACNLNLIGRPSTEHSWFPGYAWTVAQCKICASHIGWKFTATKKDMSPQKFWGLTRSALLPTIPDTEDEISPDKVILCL
T1 sequence (Q16531 whole entry partner): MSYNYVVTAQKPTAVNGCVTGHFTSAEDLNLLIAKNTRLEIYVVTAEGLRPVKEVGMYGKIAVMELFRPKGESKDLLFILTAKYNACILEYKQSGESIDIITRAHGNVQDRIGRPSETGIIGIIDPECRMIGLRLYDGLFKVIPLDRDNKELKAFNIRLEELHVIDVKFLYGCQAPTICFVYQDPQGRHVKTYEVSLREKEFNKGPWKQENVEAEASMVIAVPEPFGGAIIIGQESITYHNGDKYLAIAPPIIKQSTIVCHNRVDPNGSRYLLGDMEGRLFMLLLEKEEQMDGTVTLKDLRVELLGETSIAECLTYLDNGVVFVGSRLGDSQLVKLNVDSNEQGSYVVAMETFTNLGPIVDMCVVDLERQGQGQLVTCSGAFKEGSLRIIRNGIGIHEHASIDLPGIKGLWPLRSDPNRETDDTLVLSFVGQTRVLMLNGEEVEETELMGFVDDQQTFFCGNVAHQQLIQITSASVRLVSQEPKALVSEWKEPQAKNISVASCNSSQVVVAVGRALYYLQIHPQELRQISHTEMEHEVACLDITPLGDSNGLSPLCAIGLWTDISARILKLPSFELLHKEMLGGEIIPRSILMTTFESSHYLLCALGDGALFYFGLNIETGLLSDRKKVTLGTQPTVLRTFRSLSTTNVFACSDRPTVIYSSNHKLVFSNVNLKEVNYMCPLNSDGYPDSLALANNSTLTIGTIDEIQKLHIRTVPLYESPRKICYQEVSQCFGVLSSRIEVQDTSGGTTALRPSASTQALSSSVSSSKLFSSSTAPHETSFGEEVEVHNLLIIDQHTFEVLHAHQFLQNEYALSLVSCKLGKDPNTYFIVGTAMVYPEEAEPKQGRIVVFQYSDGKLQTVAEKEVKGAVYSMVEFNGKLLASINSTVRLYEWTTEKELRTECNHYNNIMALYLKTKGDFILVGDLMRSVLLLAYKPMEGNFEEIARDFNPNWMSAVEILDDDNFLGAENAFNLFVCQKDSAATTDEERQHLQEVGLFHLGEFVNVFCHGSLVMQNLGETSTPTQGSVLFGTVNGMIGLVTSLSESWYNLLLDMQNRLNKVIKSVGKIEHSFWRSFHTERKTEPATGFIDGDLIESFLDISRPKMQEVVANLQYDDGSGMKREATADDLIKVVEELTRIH
Sequence of NEK7-HiBiT protein (Q8TDX7 whole entry): as the sequence (Q8TDX7 whole entry) above
Sequence of NEK7-HiBiT protein (Q96SW2 whole entry, further chain): as the sequence (Q96SW2 whole entry) above
Sequence of NEK7-HiBiT protein (Q16531 whole entry partner): as the sequence (Q16531 whole entry partner) above

| Compound | activation at 1 µM [1] | EC50 [2] | Levels of NEK7-HiBiT Protein (as a % of DMSO control) (NEK7-HiBiT protein) | Normalized AlphaLISA ternary complex average signal at 1 μM molecule [1] | HTRF ternary complex Average pEC50 by molecule [2] |
| --- | --- | --- | --- | --- | --- |
| O=C1CCC(N2Cc3cc(C4COCCO4)ccc3C2=O)C(=O)N1 (stereo not drawn) [Compound 68, 3-(5-(1,4-dioxan-2-yl)-1-oxoisoindolin-2-yl)piperidine-2,6-dione] | 10 to 20% | 316 to 1000 nM | D (Levels of NEK7-HiBiT Protein ≥ 75%) |  |  |
| CCCCC1CCC(c2ccc3c(c2)CN(C2CCC(=O)NC2=O)C3=O)NC1 (mixture of isomers) [Compound 37, 3-(5-(5-butylpiperidin-2-yl)-1-oxoisoindolin-2-yl)piperidine-2,6-dione] | > 80% | 100 to 316 nM | B (Levels of NEK7-HiBiT Protein > 25% and ≤50%) |  |  |
| O=C1CCC(N2Cc3cc(C4CCC(c5ccccc5)CO4)ccc3C2=O)C(=O)N1 (single isomer, unassigned) [74 Isomer 2, 3-(1-oxo-5-(5-phenyltetrahydro-2H-pyran-2-yl)isoindolin-2-yl)piperidine-2,6-dione] |  | 100 to 316 nM | A (Levels of NEK7-HiBiT Protein ≤ 25%) | A (Normalized activity > 80%) |  |
| O=C1CCC(N2Cc3cc(N4CCCCN4)ccc3C2=O)C(=O)N1 (stereo not drawn) [Compound 58, 3-(1-oxo-5-(tetrahydropyridazin-1 (2H)-yl)isoindolin-2-yl)piperidine-2,6-dione] | 20 to 80% | 100 to 316 nM | C (Levels of NEK7-HiBiT Protein > 50% and <75%) |  |  |
| O=C1CCC(N2Cc3cc(C4CSCCN4)ccc3C2=O)C(=O)N1 (stereo not drawn) [Compound 57, 3-(1-oxo-5-(thiomorpholin-3-yl)isoindolin-2-yl)piperidine-2,6-dione] | 20 to 80% | 100 to 316 nM | C (Levels of NEK7-HiBiT Protein > 50% and <75%) |  |  |
| O=C1CCC(N2Cc3c(csc3C3CCCCO3)C2=O)C(=O)N1 (stereo not drawn) [Compound 71, 3-(4-oxo-1-(tetrahydro-2H-pyran-2-yl)-4H-thieno[3,4-c]pyrrol-5 (6H)-yl)piperidine-2,6-dione] | < 10% | > 3160 nM | D (Levels of NEK7-HiBiT Protein ≥ 75%) |  |  |
| O=C1CCC(N2C(=O)c3ccc(-c4ccccn4)c4cccc2c34)C(=O)N1 (stereo not drawn) [23(2), 3-(2-oxo-5-(pyridin-2-yl)benzo[cd]indol-1 (2H)-yl)piperidine-2,6-dione] | > 80% | < 100 nM | B (Levels of NEK7-HiBiT Protein > 25% and ≤50%) |  |  |
| O=C1CCC(N2Cc3cc(C4CCC(NC(=O)c5ccccc5)CN4)ccc3C2=O)C(=O)N1 (stereo not drawn) [Compound 56, N-(6-(2-(2,6-dioxopiperidin-3-yl)-1-oxoisoindolin-5-yl)piperidin-3-yl)benzamide] | > 80% | < 100 nM | A (Levels of NEK7-HiBiT Protein ≤ 25%) |  |  |
| 3-(5-((2R,6S)-6-butyltetrahydro-2H-pyran-2-yl)-1-oxoisoindolin-2-yl)piperidine-2,6-dione and 3-(5-((2S,6R)-6-butyltetrahydro-2H-pyran-2-yl)-1-oxoisoindolin-2-yl)piperidine-2,6-dione [69 Isomer 1] |  |  | A (Levels of NEK7-HiBiT Protein ≤ 25%) | A (Normalized activity > 80%) | +++ (6.5 > pEC50 > 6.0) |
| CC(C)C1CCC(c2ccc3c(c2)CN(C2CCC(=O)NC2=O)C3=O)NC1 (single isomer, unassigned) [55 Isomer 1, 3-(5-(5-isopropylpiperidin-2-yl)-1-oxoisoindolin-2-yl)piperidine-2,6-dione] |  | 316 to 1000 nM | C (Levels of NEK7-HiBiT Protein > 50% and <75%) | B (Normalized activity > 20% and <80%) |  |
| O=C1CCC(N2Cc3cc(-c4ccc5ccccc5n4)ccc3C2=O)C(=O)N1 (stereo not drawn) [5(2), 3-(1-oxo-5-(quinolin-2-yl)isoindolin-2-yl)piperidine-2,6-dione] | > 80% | 100 to 316 nM | B (Levels of NEK7-HiBiT Protein > 25% and ≤50%) |  |  |

Further lines, with some results ahead:

| activation at 1 µM [1] | EC50 [2] | Levels of NEK7-HiBiT Protein (as a % of DMSO control) (NEK7-HiBiT protein) | Normalized AlphaLISA ternary complex average signal at 1 μM molecule [1] | Compound | HTRF ternary complex Average pEC50 by molecule [2] |
| --- | --- | --- | --- | --- | --- |
| < 10% | > 3160 nM | D (Levels of NEK7-HiBiT Protein ≥ 75%) |  | O=C1CCC(N2Cc3cc(C4CCCCN4)cc(F)c3C2=O)C(=O)N1 (stereo not drawn) [Compound 24, 3-(7-fluoro-1-oxo-5-(piperidin-2-yl)isoindolin-2-yl)piperidine-2,6-dione] |  |
| < 10% | > 3160 nM | D (Levels of NEK7-HiBiT Protein ≥ 75%) |  | Cc1cc(C2CCCCN2)cc2c1C(=O)N(C1CCC(=O)NC1=O)C2 (stereo not drawn) [Compound 21, 3-(7-methyl-1-oxo-5-(piperidin-2-yl)isoindolin-2-yl)piperidine-2,6-dione] |  |
| 20 to 80% | 316 to 1000 nM | A (Levels of NEK7-HiBiT Protein ≤ 25%) |  | O=C1CCC(N2Cc3cc(C4CCCN4)ccc3C2=O)C(=O)N1 (stereo not drawn) [Compound 6, 3-(1-oxo-5-(pyrrolidin-2-yl)isoindolin-2-yl)piperidine-2,6-dione] |  |
| < 10% | > 3160 nM | A (Levels of NEK7-HiBiT Protein ≤ 25%) |  | O=C1CCC(N2Cc3c(ccc(C4CCCCN4)c3F)C2=O)C(=O)N1 (stereo not drawn) [Compound 22, 3-(4-fluoro-1-oxo-5-(piperidin-2-yl)isoindolin-2-yl)piperidine-2,6-dione] |  |
| < 10% | > 3160 nM | D (Levels of NEK7-HiBiT Protein ≥ 75%) |  | Cc1cc2c(cc1C1CCCCN1)CN(C1CCC(=O)NC1=O)C2=O (stereo not drawn) [Compound 20, 3-(6-methyl-1-oxo-5-(piperidin-2-yl)isoindolin-2-yl)piperidine-2,6-dione] |  |
